Among the data in ChEMBL document CHEMBL1138760, “Conformationally constrained analogues of diacylglycerol (DAG). 23. Hydrophobic ligand-protein interactions versus ligand-lipid interactions of DAG-lactones with protein kinase C (PK-C)” (J Med Chem, 2004) are Ki values, retold here.

For orientation: Ki means the dissociation constant of the complex between target and ligand, obtained from inhibition or displacement.

Assay [1] deals with Protein kinase C delta type (Homo sapiens, UniProt Q05655). In words: Binding affinity for isolated C1b domain of protein kinase C-delta.
Protein kinase C delta type, sequence (Q05655 whole entry, the tested form may be a part): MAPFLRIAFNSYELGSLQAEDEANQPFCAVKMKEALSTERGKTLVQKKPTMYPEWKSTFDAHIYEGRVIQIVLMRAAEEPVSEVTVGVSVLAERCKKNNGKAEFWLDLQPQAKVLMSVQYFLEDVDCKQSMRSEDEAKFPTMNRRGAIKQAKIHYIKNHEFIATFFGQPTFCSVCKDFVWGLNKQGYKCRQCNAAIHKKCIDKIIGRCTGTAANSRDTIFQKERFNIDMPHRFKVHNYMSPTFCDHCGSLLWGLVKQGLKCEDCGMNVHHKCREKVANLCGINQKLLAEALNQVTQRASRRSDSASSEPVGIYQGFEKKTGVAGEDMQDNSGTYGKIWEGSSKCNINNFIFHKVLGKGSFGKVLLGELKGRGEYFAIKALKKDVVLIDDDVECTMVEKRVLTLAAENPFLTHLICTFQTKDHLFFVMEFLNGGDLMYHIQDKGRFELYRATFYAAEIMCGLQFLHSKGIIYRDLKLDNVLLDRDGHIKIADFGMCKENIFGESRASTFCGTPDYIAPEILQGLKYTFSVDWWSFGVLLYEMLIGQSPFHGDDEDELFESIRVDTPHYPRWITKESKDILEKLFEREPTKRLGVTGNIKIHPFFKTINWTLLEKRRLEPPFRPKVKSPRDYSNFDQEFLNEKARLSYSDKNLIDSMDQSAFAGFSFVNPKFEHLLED
A short description of assay [2]: Binding affinity for protein kinase C-alpha C1a and C1b domains.

Consider `CC(C)C(C/C=C1/C(=O)OC(CO)(COC(=O)C(C)(C)C)C1(C)C)C(C)C` (stereo not drawn), for which, in assay [1], affinity was put at a Ki of 3470 nM.

In the case of `CC(C)C(C/C=C1\CC(CO)(COC(=O)C(C)(C)C)OC1=O)C(C)C` (stereo not drawn), affinity in assay [2] was put at a Ki of 11.2 nM.

`CC(C)CC(C/C=C1\CC(CO)(COC(=O)C(C)(C)C)OC1=O)CC(C)C` (stereo not drawn): the values for the Ki in assay [2] and in assay [1] were 3.25 nM and 0.9 nM, respectively. In turn, `CC(C)C(C/C=C1/CC(CO)(COC(=O)C(C)(C)C)OC1=O)C(C)C` (stereo not drawn) came in with a Ki in assay [2] of 8.32 nM.

Compound `CC(C)C(C/C=C1\C(=O)OC(CO)(COC(=O)C(C)(C)C)C1(C)C)C(C)C` (stereo not drawn) registered a Ki in assay [1] of 1460 nM. On to `CC(C)CC(C/C=C1/CC(CO)(COC(=O)C(C)(C)C)OC1=O)CC(C)C` (stereo not drawn), for which the Ki came out at 2.9 nM in assay [2] and 1.16 nM in assay [1].
